Assay [1] concerns cellular H3K36me2 level in multiple myeloma cell line KMS11 (t(4;14)+). Nature of the assay: H3K36me2 cellular ELISA assay in KMS11-Par line. The format is cell-based. The settings on record: Homo sapiens, KMS-11, ELISA, read-out: H3K36me2 ELISA in KMS11-Par. Put shortly:
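KMS11 cells were seeded a day ahead at 1,250 per well in Opti-MEM with B-27/N2, then treated with compound for 72 h. Histones were acid-extracted with 0.4M HCl, and H3K36me2 and total H3 were read by chemiluminescent ELISA. Viability was checked with CellTiter-Glo on a parallel plate in maintenance media.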

Assay [2] relates to cellular H3K36me2 level in thyroid carcinoma cell line CGTH-W-1 (NSD2 E1099K). As to the kind of experiment: H3K36me2 cellular ELISA assay in CGTH-W-1 line. The format is cell-based. The settings on record: Homo sapiens, CGTH-W-1, 72 h, read-out: H3K36me2 ELISA in CGTH-W-1. Summed up: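 CGTH-W-1 thyroid carcinoma cells (NSD2 E1099K gain-of-function) exposed to compound for 72 hours. Histone-bound plates probed for H3K36me2 and total H3 by chemiluminescent ELISA. Viability checked on a parallel plate with CellTiter-Glo.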

The next assay deals with NSD2 [1-1365] (Homo sapiens (Human), UniProt O96028). As to the kind of experiment: LC-MS/MS-based NSD2 enzymatic assay (SAH production). It is filed as biochemical. The settings on record: read-out: NSD2 IC50. Summed up:
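Full-length NSD2 [1-1365] (8 nM final) with 1 μM SAM and 400 nM mouse-liver nucleosome in Tris pH 8.0 buffer; inhibitor preincubated 20 min with enzyme/SAM before nucleosome addition. Reaction 90 min at room temperature, TFA-quenched; SAH quantified by LC-MS/MS against d4-SAH internal standard and SAH standard curve.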

The mark [3] stands for this setting: KMS11-Par line (t(4;14)+), 72 hours treatment.
Setting [4] is: NSD2 biochemical activity, class symbols.

The values that follow come from patent US11420970B1 (NOVARTIS AG, priority 2019, dated 2022).

Where two headings read alike, the source gives them in different places.

Chain of NSD2 [1-1365] (O96028 whole entry): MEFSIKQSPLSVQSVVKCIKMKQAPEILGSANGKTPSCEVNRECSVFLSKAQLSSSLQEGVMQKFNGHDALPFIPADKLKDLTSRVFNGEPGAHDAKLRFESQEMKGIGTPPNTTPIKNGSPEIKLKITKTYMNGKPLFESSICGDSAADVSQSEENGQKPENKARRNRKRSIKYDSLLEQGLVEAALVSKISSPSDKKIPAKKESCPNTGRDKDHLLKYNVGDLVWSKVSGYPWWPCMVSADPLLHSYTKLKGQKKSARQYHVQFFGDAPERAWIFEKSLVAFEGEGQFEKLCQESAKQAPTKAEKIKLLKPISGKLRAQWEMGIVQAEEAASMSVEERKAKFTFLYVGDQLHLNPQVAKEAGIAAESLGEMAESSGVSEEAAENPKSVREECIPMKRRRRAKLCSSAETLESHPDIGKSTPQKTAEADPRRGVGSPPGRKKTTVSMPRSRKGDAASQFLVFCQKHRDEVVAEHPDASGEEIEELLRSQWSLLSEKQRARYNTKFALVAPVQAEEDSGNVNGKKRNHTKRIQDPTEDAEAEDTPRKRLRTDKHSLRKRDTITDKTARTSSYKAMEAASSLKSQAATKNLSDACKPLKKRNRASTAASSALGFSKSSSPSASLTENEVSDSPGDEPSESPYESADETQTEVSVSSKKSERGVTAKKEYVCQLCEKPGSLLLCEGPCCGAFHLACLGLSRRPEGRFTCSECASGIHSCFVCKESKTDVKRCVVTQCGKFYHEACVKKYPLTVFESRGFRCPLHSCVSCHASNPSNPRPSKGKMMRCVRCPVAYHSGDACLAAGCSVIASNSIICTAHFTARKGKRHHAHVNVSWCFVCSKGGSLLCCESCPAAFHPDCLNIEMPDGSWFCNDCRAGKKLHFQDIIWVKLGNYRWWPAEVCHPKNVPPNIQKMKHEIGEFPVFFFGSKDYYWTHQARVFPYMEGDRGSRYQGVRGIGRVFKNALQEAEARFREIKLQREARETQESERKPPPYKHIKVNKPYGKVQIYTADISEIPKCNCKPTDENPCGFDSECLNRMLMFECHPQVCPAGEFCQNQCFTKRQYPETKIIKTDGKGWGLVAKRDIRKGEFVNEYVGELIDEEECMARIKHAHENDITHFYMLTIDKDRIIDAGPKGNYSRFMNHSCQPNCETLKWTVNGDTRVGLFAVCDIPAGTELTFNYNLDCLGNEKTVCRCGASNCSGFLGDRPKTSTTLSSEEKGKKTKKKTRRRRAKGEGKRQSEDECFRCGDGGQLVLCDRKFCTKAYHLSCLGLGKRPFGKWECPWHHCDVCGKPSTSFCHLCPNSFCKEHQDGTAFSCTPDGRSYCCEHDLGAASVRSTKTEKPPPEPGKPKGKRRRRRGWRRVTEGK

As to `Nc1ncnc2c1ncn2Cc1cc(-c2cnc(F)c(Cl)c2)ncc1N1CCC[C@](N)(c2cccc(Cl)n2)C1` [Example 180, (R)-9-((5-(3-amino-3-(6-chloropyridin-2-yl)piperidin-1-yl)-5′-chloro-6′-fluoro-[2,3′-bipyridin]-4-yl)methyl)-9H-purin-6-amine], the IC50 was 5490 nM in assay [1] (KMS11-Par line, 72 hours); 1460 nM in assay [2]; 10 to 1000 nM at NSD2 [1-1365].

With `Nc1ncnc2c1ncn2Cc1cc(-c2cnc(F)c(F)c2)ncc1N1CCCC(N)(c2cccc(Cl)n2)C1` (stereo not drawn) [Example 240, 9-((5-(3-amino-3-(6-chloropyridin-2-yl)piperidin-1-yl)-5′,6′-difluoro-[2,3′-bipyridin]-4-yl)methyl)-9H-purin-6-amine], the IC50 in assay [1] (KMS11-Par line, 72 hours) was 5930 nM; in assay [2], 821 nM; on NSD2 [1-1365], 10 to 1000 nM.

Turning to `Cc1cc(F)c(F)cc1-c1cc(Cn2cnc3c(N)ncnc32)c(N2CCC[C@](N)([C@@H](O)C(F)F)C2)cn1` [Example 117, (R)-1-((R)-3-amino-1-(4-((6-amino-9H-purin-9-yl)methyl)-6-(4,5-difluoro-2-methylphenyl)pyridin-3-yl)piperidin-3-yl)-2,2-difluoroethan-1-ol], the IC50 in assay [1] (setting [3]) was 1320 nM; in assay [2], 67 nM; on NSD2 [1-1365] (setting [4]), 1 to 10 nM.

Turning to `Nc1ncnc2c1ncn2Cc1cc(-c2cc(F)c(C(F)F)cc2F)ncc1N1CCC[C@](N)([C@@H](O)C(F)F)C1` [Example 134, (R)-1-((R)-3-amino-1-(4-((6-amino-9H-purin-9-yl)methyl)-6-(4-(difluoromethyl)-2,5-difluorophenyl)pyridin-3-yl)piperidin-3-yl)-2,2-difluoroethan-1-ol], the IC50 was 830 nM in assay [1] (setting [3]), 601 nM in assay [2] and 10 to 1000 nM at NSD2 [1-1365] (setting [4]).

Take `COc1cnc(-c2cc(Cn3cnc4c(N)ncnc43)c(N3CCC[C@](N)(c4cccc(Cl)n4)C3)cn2)cc1F` [Example 243, (R)-9-((5-(3-amino-3-(6-chloropyridin-2-yl)piperidin-1-yl)-4′-fluoro-5′-methoxy-[2,2′-bipyridin]-4-yl)methyl)-9H-purin-6-amine]: the IC50 is 2440 nM in assay [1] (KMS11-Par line, 72 hours); 541 nM in assay [2]; 1 to 10 nM at NSD2 [1-1365].

As to `Nc1ncnc2c1ncn2Cc1cc(-c2cc(F)c(F)cc2C(F)F)ncc1N1CCC[C@](N)([C@@H](O)C(F)F)C1` [Example 170, (R)-1-((R)-3-amino-1-(4-((6-amino-9H-purin-9-yl)methyl)-6-(2-(difluoromethyl)-4,5-difluorophenyl)pyridin-3-yl)piperidin-3-yl)-2,2-difluoroethan-1-ol], the IC50 in assay [1] (KMS11-Par line, 72 hours) is 1470 nM; in assay [2], 161 nM; at NSD2 [1-1365], 10 to 1000 nM.

On to `COc1ccc(-c2cc(Cn3cnc4c(N)ncnc43)c(N3CCC[C@](N)([C@@H](C)O)C3)cn2)cc1F` [Example 90, (R)-1-((R)-3-amino-1-(4-((6-amino-9H-purin-9-yl)methyl)-6-(3-fluoro-4-methoxyphenyl)pyridin-3-yl)piperidin-3-yl)ethan-1-ol], for which the figures for the IC50 (in assay [1] (setting [3]); in assay [2]; at NSD2 [1-1365] (setting [4])) were 432 nM, 239 nM and 1 to 10 nM, respectively.

Consider `C[C@H]1COC[C@@H]([C@@]2(N)CCCN(c3cnc(-c4ccc(F)c(F)c4)cc3Cn3cnc4c(N)ncnc43)C2)O1` [Example 288, 9-((5-((R)-3-amino-3-((2R,6S)-6-methyl-1,4-dioxan-2-yl)piperidin-1-yl)-2-(3,4-difluorophenyl)pyridin-4-yl)methyl)-9H-purin-6-amine], for which the IC50 was 5720 nM in assay [1] (KMS11-Par line, 72 hours); 2390 nM in assay [2]; 10 to 1000 nM at NSD2 [1-1365].

In the case of `Nc1ncnc2c1ncn2Cc1cc(-c2ccc(F)c(F)c2)ncc1N1CCC[C@](N)([C@@H](O)C(F)F)C1` [Example 113, (R)-1-((R)-3-amino-1-(4-((6-amino-9H-purin-9-yl)methyl)-6-(3,4-difluorophenyl)pyridin-3-yl)piperidin-3-yl)-2,2-difluoroethan-1-ol], the IC50 in assay [1] (setting [3]) is 753 nM; in assay [2], 145 nM; at NSD2 [1-1365] (setting [4]) it was 10 to 1000 nM.

For the molecule `Nc1ncnc2c1ncn2Cc1cc(-c2ccc(F)c(Cl)n2)ncc1N1CCC[C@](N)([C@@H](O)C(F)F)C1` [Example 176, (R)-1-((R)-3-amino-1-(4-((6-amino-9H-purin-9-yl)methyl)-6′-chloro-5′-fluoro-[2,2′-bipyridin]-5-yl)piperidin-3-yl)-2,2-difluoroethan-1-ol], the IC50 in assay [1] (KMS11-Par line, 72 hours) is 8970 nM; in assay [2] it was 953 nM; on NSD2 [1-1365], 10 to 1000 nM.

`Nc1ncnc2c1ncn2Cc1cc(-c2ccc(F)c(F)c2)ncc1N1CCC[C@](N)(c2nc(F)ccc2O)C1` [Example 239, (R)-2-(3-amino-1-(4-((6-amino-9H-purin-9-yl)methyl)-6-(3,4-difluorophenyl)pyridin-3-yl)piperidin-3-yl)-6-fluoropyridin-3-ol]: the IC50 is 1540 nM in assay [1] (KMS11-Par line, 72 hours); 353 nM in assay [2]; 1 to 10 nM on NSD2 [1-1365].

For the molecule `CC1(C(=O)C2(N)CCCN(c3cnc(-c4ccc(F)c(F)c4)cc3Cn3cnc4c(N)ncnc43)C2)CC1` (stereo not drawn) [Example 107, (3-amino-1-(4-((6-amino-9H-purin-9-yl)methyl)-6-(3,4-difluorophenyl)pyridin-3-yl)piperidin-3-yl)(1-methylcyclopropyl)methanone], the figures for the IC50 (in assay [1] (setting [3]); in assay [2]; on NSD2 [1-1365] (setting [4])) were 3020 nM, 446 nM and 10 to 1000 nM, respectively.

In the case of `COc1ccc(-c2cc(Cn3cnc4c(N)ncnc43)c(N3CCC[C@](N)([C@H](O)C(F)F)C3)cn2)cc1F` [Example 127, (S)-1-((R)-3-amino-1-(4-((6-amino-9H-purin-9-yl)methyl)-6-(3-fluoro-4-methoxyphenyl)pyridin-3-yl)piperidin-3-yl)-2,2-difluoroethan-1-ol], the IC50 in assay [1] (setting [3]) is 901 nM; in assay [2], 262 nM; on NSD2 [1-1365] (setting [4]), 1 to 10 nM.

In the case of `Nc1ncnc2c1ncn2Cc1cc(-c2ccc(Cl)cc2F)ncc1N1CCC[C@](N)([C@H](O)C(F)F)C1` [Example 148, (S)-1-((R)-3-amino-1-(4-((6-amino-9H-purin-9-yl)methyl)-6-(4-chloro-2-fluorophenyl)pyridin-3-yl)piperidin-3-yl)-2,2-difluoroethan-1-ol], the IC50 is 2160 nM in assay [1] (setting [3]), 671 nM in assay [2] and 10 to 1000 nM at NSD2 [1-1365] (setting [4]).

In the case of `Nc1ncnc2c1ncn2Cc1cc(-c2ccc(F)c(F)c2)ncc1N1CCC[C@](N)(c2nc(Cl)ccc2F)C1` [Example 192, (R)-9-((5-(3-amino-3-(6-chloro-3-fluoropyridin-2-yl)piperidin-1-yl)-2-(3,4-difluorophenyl)pyridin-4-yl)methyl)-9H-purin-6-amine], the IC50 in assay [1] (KMS11-Par line, 72 hours) was 2180 nM; in assay [2] it was 731 nM; on NSD2 [1-1365], 10 to 1000 nM.

Consider `Nc1ncnc2c1ncn2Cc1cc(-c2ccc(F)c(F)c2F)ncc1N1CCC[C@](N)([C@@H](O)C(F)F)C1` [Example 172, (R)-1-((R)-3-amino-1-(4-((6-amino-9H-purin-9-yl)methyl)-6-(2,3,4-trifluorophenyl)pyridin-3-yl)piperidin-3-yl)-2,2-difluoroethan-1-ol], for which the IC50 in assay [1] (KMS11-Par line, 72 hours) is 8930 nM; in assay [2], 1200 nM; at NSD2 [1-1365], 10 to 1000 nM.

With `C[C@H](F)c1cccc([C@@]2(N)CCCN(c3cnc(-c4ccc(F)cc4)cc3Cn3cnc4c(N)ncnc43)C2)n1` [Example 183, 9-((5-((R)-3-amino-3-(6-((S)-1-fluoroethyl)pyridin-2-yl)piperidin-1-yl)-2-(4-fluorophenyl)pyridin-4-yl)methyl)-9H-purin-6-amine], the IC50 in assay [1] (KMS11-Par line, 72 hours) is 455 nM; in assay [2], 159 nM; on NSD2 [1-1365] it was 10 to 1000 nM.

For the molecule `Nc1ncnc2c1ncn2Cc1cc(-c2ccc(F)c(Cl)n2)ncc1N1CCC[C@](N)(c2cccc(Cl)n2)C1` [Example 191, (R)-9-((5-(3-amino-3-(6-chloropyridin-2-yl)piperidin-1-yl)-6′-chloro-5′-fluoro-[2,2′-bipyridin]-4-yl)methyl)-9H-purin-6-amine], the IC50 was 4560 nM in assay [1] (KMS11-Par line, 72 hours); 1380 nM in assay [2]; 10 to 1000 nM on NSD2 [1-1365].

Turning to `COc1ccc(-c2cc(Cn3cnc4c(N)ncnc43)c(N3CCC[C@](N)([C@@H](O)C(F)F)C3)cn2)c(Cl)c1` [Example 169, (R)-1-((R)-3-amino-1-(4-((6-amino-9H-purin-9-yl)methyl)-6-(2-chloro-4-methoxyphenyl)pyridin-3-yl)piperidin-3-yl)-2,2-difluoroethan-1-ol], the IC50 was 2990 nM in assay [1] (KMS11-Par line, 72 hours); 426 nM in assay [2]; 10 to 1000 nM at NSD2 [1-1365].

`Nc1ncnc2c1ncn2Cc1cc(-c2ccc(F)c(Cl)n2)ncc1N1CCC[C@](N)([C@H](O)C(F)F)C1` [Example 175, (S)-1-((R)-3-amino-1-(4-((6-amino-9H-purin-9-yl)methyl)-6′-chloro-g-fluoro-[2,2′-bipyridin]-5-yl)piperidin-3-yl)-2,2-difluoroethan-1-ol]: the IC50 in assay [1] (KMS11-Par line, 72 hours) was 11300 nM; in assay [2], 534 nM; at NSD2 [1-1365], 10 to 1000 nM.
